The compounds below were run against TNFα trimer (Homo sapiens, UniProt P01375) (assay: TNFα FP Competitive Binding Assay). Conditions: TNFα FP competitive binding assay; class symbols A/B/C; read-out: TNF IC50.
Experimental: TNFα FP Competitive Binding Assay
• 1. Assay Buffer: Prepare 1× Assay Buffer (Water with 47 mM HEPES, 47 mM NaCl, 0.9 mM EDTA, 0.0071% Triton X-100) by adding 25 mL of 1 M HEPES, 5 mL of 5 M NaCl, 1 mL of 0.5 M EDTA, and 375 μL of a 10% Triton X-100 stock to a fresh 500 mL bottle of water. • 2. Assay Mixture: Prepare fresh Assay Mixture containing 20 nM TNFα trimer (60 nM protein) and 1 nM 2′,7′-difluoro-3′,6′-dihydroxy-N-(2-(2-(2-((4-(isoquinolin-8-yl)-3-(4-(isoquinolin-8-yl)phenethoxy)benzyl)oxy)ethoxy)ethoxy)ethyl)-3-oxo-3H-spiro[isobenzofuran-1,9′-xanthene]-5-carboxamide probe in 1× Assay Buffer.
Compound Plate Preparation
Manual 12-point 1:3 Dilution Plates: (384 well polypropylene plates)
Top concentration of compounds, 10 mM in DMSO, dispensed in rows A-O in columns 1 and 13. Compounds are serially diluted 1:3 with DMSO in columns 2-12 or 14-24 using a 16-channel Matrix pipettor. Plates stored at −20° C.
Discovery Preps 12-point 1:3 Dilution Plates: (384 well assay plates)
Top concentration, 5 mM in DMSO, of compounds placed in rows A-O in columns 1 and 13. Compounds are serially diluted 1:3 with DMSO in columns 2-12 or 14-24. Compound solutions are dispensed into replicate assay plates at 410 nL per well. Plates stored at 4° C.
TNFα FP Competitive Binding Assay Protocol
• 1. Compound plates are warmed to rt. • 2. Fresh Assay Mixture is prepared. • 3. Assay Mixture (20 μL) is dispensed each well of 384 assay plates using a Thermo Multidrop Combi or 16-channel Matrix pipettor. If Manual 12-point 1:3 Dilution Plates are to be tested, Assay Mix is dispensed into empty plates. Discovery Preps 12-point 1:3 Dilution Plates already contain 410 nL compound solution in DMSO. • 4. For Manual 12-point 1:3 Dilution Plates, 0.7 μL is manually transferred using a 16-channel Matrix pipettor to replicate assay plates containing 20 μL Assay Mixture for a final top compound concentration of 338 μM (3.4% DMSO). • 5. For Discovery Preps 12-point 1:3 Dilution Plates, 20 μL Assay Mixture added the 410 nL compound solution already in the plates yields a final top compound concentration of 100 μM (2.0% DMSO). • 6. Background subtraction controls are wells P1-P8 containing only Assay Buffer. The low % inhibition controls are wells P9-P16 containing only Assay Mix. The high % inhibition are wells P17-P24 containing only 1 nM 2′,7′-difluoro-3′,6′-dihydroxy-N-(2-(2-(2-((4-(isoquinolin-8-yl)-3-(4-(isoquinolin-8-yl)phenethoxy)benzyl)oxy)ethoxy)ethoxy)ethyl)-3-oxo-3H-spiro[isobenzofuran-1,9′-xanthene]-5-carboxamide probe in 1× Assay Buffer. • 7. Plates are incubated at […] for 18-24 h in 37° C. incubator (CO2 is off). • 8. Prior to reading the assay, the plates are placed in a dark cabinet to equilibrate at rt for one hour. • 9. Background-subtracted fluorescence polarization (mP) is measured using a PerkinElmer Envision plate reader. • 10. Raw data is entered into Assay Explorer and dose-response curves are generated using a variable slope curve.

Sequence of TNFα trimer (P01375 77-233 limits assumed): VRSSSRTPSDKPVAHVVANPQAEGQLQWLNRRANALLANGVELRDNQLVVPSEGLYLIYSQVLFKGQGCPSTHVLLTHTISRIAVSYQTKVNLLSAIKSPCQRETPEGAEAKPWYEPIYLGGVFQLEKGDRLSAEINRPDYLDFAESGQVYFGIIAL

| IC50 [µM] | Compound |
| --- | --- |
| < 1 | OC1(c2ncc(-c3ccc4nc5n(c4c3)[C@@H](c3ccccc3)CC5)cn2)CCOCC1 [AA.1] |
| < 1 | OC1(c2ncc(-c3ccc4nc5n(c4c3)[C@@H](c3ccccc3)CC5)cn2)CCC1 [AA.2] |

Same assay, conditions: fluorescence polarization competition; 20 nM TNFα trimer, 1 nM OregonGreen488 probe; read-out: TNF IC50 (TNFα FP binding assay IC50)

| IC50 [µM] | Compound |
| --- | --- |
| 1 to 10 | 1-((R)-4-(5-((R)-8-(3-(Hydroxymethyl)phenyl)-7,8-dihydro-6H-pyrrolo[2′,1′:2,3]imidazo[4,5-b]pyridin-2-yl)pyrimidin-2-yl)-2-methylpiperazin-1-yl)ethanone [Example 45] |
| < 1 | c1ccc(C2COCc3nc4ccc(-c5cnc(N6CCOCC6)nc5)cc4n32)cc1 (single isomer, unassigned) [Example 21] |
| < 1 | O=C1NCC2CN(c3ncc(-c4ccc5nc6n(c5n4)[C@@H](c4ccccc4)CC6)cn3)CCN12 (single isomer, unassigned) [Example 30] |
| < 1 | O=C1NCC2CN(c3ncc(-c4ccc5nc6n(c5n4)C(c4ccccc4)COC6)cn3)CCN12 (stereo in doubt) [Example 58, (8aS)-7-(5-(9-Phenyl-8,9-dihydro-6H-pyrido[3′,2′:4,5]imidazo[2,1-c][1,4]oxazin-2-yl)pyrimidin-2-yl)hexahydroimidazo[1,5-a]pyrazin-3(2H)-one] |
| < 1 | C[C@]1(c2ccccc2)CCc2nc3ccc(-c4cnc(N5CCC(O)CC5)nc4)nc3n21 [(R)-1-(5-(8-methyl-8-phenyl-7,8-dihydro-6H-pyrrolo[2′,1′:2,3]imidazo[4,5-b]pyridin-2-yl)pyrimidin-2-yl)piperidin-4-ol] |
| < 1 | CC(C)(O)c1ncc(-c2ccc3nc4n(c3n2)[C@@](C)(c2ccccc2)CC4)cn1 [(R)-2-(5-(8-methyl-8-phenyl-7,8-dihydro-6H-pyrrolo[2′,1′:2,3]imidazo[4,5-b]pyridin-2-yl)pyrimidin-2-yl)propan-2-ol] |
| 10 to 100 | C[C@@]1(c2ccccc2)CCc2nc3ccc(-c4cnc(N5CCC(O)CC5)nc4)nc3n21 [(S)-1-(5-(8-methyl-8-phenyl-7,8-dihydro-6H-pyrrolo[2′,1′:2,3]imidazo[4,5-b]pyridin-2-yl)pyrimidin-2-yl)piperidin-4-ol] |
| 10 to 100 | CC(C)(O)c1ncc(-c2ccc3nc4n(c3n2)[C@](C)(c2ccccc2)CC4)cn1 [(S)-2-(5-(8-methyl-8-phenyl-7,8-dihydro-6H-pyrrolo[2′,1′:2,3]imidazo[4,5-b]pyridin-2-yl)pyrimidin-2-yl)propan-2-ol] |
| < 1 | CNS(=O)(=O)c1ccc(-c2ccc3nc4n(c3c2)C(c2ccccc2)CC4)cc1 (stereo not drawn) [A.1] |
| < 1 | CCS(=O)(=O)c1ccc(-c2ccc3nc4n(c3c2)C(c2ccccc2)CC4)cc1 (stereo not drawn) [A.2] |
| < 1 | O=S(=O)(c1ccc(-c2ccc3nc4n(c3c2)C(c2ccccc2)CC4)cc1)N1CCOCC1 (stereo not drawn) [A.3] |
| < 1 | CS(=O)(=O)NCc1ccc(-c2ccc3nc4n(c3c2)C(c2ccccc2)CC4)cc1 (stereo not drawn) [A.4] |
| < 1 | CS(=O)(=O)c1ccc(-c2ccc3nc4n(c3c2)C(c2ccccc2)CC4)cc1 (stereo not drawn) [A.5] |
| < 1 | NS(=O)(=O)c1ccc(-c2ccc3nc4n(c3c2)C(c2ccccc2)CC4)cc1 (stereo not drawn) [A.6] |
| < 1 | N#CCc1ccc(-c2ccc3nc4n(c3c2)C(c2ccccc2)CC4)cc1 (stereo not drawn) [A.7] |
| < 1 | c1ccc(C2CCc3nc4ccc(-c5cnc(C6CC6)nc5)cc4n32)cc1 (stereo not drawn) [A.8] |
| < 1 | CCS(=O)(=O)c1ccc(-c2ccc3nc4n(c3c2)C(c2ccccc2)CC4)cn1 (stereo not drawn) [A.9] |
| < 1 | CN(C)C(=O)c1ccc(-c2ccc3nc4n(c3c2)C(c2ccccc2)CC4)cc1 (stereo not drawn) [A.10] |
| < 1 | CCN(C)C(=O)c1ccc(-c2ccc3nc4n(c3c2)C(c2ccccc2)CC4)cc1 (stereo not drawn) [A.11] |
| 1 to 10 | CN(C)c1ccc(-c2ccc3nc4n(c3c2)C(c2ccccc2)CC4)cn1 (stereo not drawn) [A.12] |
| 1 to 10 | Cc1cc(-c2ccc3nc4n(c3c2)C(c2ccccc2)CC4)ccn1 (stereo not drawn) [A.13] |
| 1 to 10 | Cc1ccc(-c2ccc3nc4n(c3c2)C(c2ccccc2)CC4)cn1 (stereo not drawn) [A.14] |
| 1 to 10 | CCOc1cncc(-c2ccc3nc4n(c3c2)C(c2ccccc2)CC4)c1 (stereo not drawn) [A.15] |
| 1 to 10 | CSc1ccc(-c2ccc3nc4n(c3c2)C(c2ccccc2)CC4)cn1 (stereo not drawn) [A.16] |
| 1 to 10 | c1ccc(C2CCc3nc4ccc(-c5ccc(N6CCNCC6)nc5)cc4n32)cc1 (stereo not drawn) [A.17] |
| 1 to 10 | N#CCOc1cccc(-c2ccc3nc4n(c3c2)C(c2ccccc2)CC4)c1 (stereo not drawn) [A.18] |
| 1 to 10 | O=C(NC1CC1)c1ccc(-c2ccc3nc4n(c3c2)C(c2ccccc2)CC4)cc1 (stereo not drawn) [A.19] |
| 1 to 10 | CN1CCN(c2ccc(-c3ccc4nc5n(c4c3)C(c3ccccc3)CC5)cn2)CC1 (stereo not drawn) [A.20] |

| IC50 [µM] | Compound |
| --- | --- |
| 1 to 10 | c1ccc(C2CCc3nc4ccc(-c5cnn(Cc6cccnc6)c5)cc4n32)cc1 (stereo not drawn) [A.21] |
| 1 to 10 | c1ccc(C2CCc3nc4ccc(-c5cccnc5)cc4n32)cc1 (stereo not drawn) [A.22] |
| 1 to 10 | Nc1ncc(-c2ccc3nc4n(c3c2)C(c2ccccc2)CC4)cn1 (stereo not drawn) [A.23] |
| 1 to 10 | c1ccc(C2CCc3nc4ccc(-c5cncnc5)cc4n32)cc1 (stereo not drawn) [A.24] |
| 1 to 10 | Cc1cncc(-c2ccc3nc4n(c3c2)C(c2ccccc2)CC4)c1 (stereo not drawn) [A.25] |
| 1 to 10 | O=C(NCC1CCCO1)c1ccc(-c2ccc3nc4n(c3c2)C(c2ccccc2)CC4)cc1 (stereo not drawn) [A.26] |
| 10 to 100 | Nc1ccc(-c2ccc3nc4n(c3c2)C(c2ccccc2)CC4)cn1 (stereo not drawn) [A.27] |
| 10 to 100 | Cc1c(-c2ccc3nc4n(c3c2)C(c2ccccc2)CC4)cnn1C (stereo not drawn) [A.28] |
| 10 to 100 | CN(C)C(=O)c1cccc(-c2ccc3nc4n(c3c2)C(c2ccccc2)CC4)c1 (stereo not drawn) [A.29] |
| 10 to 100 | CS(=O)(=O)c1cccc(-c2ccc3nc4n(c3c2)C(c2ccccc2)CC4)c1 (stereo not drawn) [A.30] |
| 10 to 100 | CS(=O)(=O)c1cncc(-c2ccc3nc4n(c3c2)C(c2ccccc2)CC4)c1 (stereo not drawn) [A.31] |
| 10 to 100 | Cc1ncccc1-c1ccc2nc3n(c2c1)C(c1ccccc1)CC3 (stereo not drawn) [A.32] |
| < 1 | CC(C)S(=O)(=O)c1ccc(-c2ccc3nc4n(c3c2)C(c2ccccc2)CC4)cc1 (stereo not drawn) [A.33] |
| 1 to 10 | N#CCOc1ccc(-c2ccc3nc4n(c3c2)C(c2ccccc2)CC4)cc1 (stereo not drawn) [A.34] |
| 1 to 10 | CCNC(=O)c1ccc(-c2ccc3nc4n(c3c2)C(c2ccccc2)CC4)cc1 (stereo not drawn) [A.35] |
| 1 to 10 | NC(=O)c1ccc(-c2ccc3nc4n(c3c2)C(c2ccccc2)CC4)cc1 (stereo not drawn) [A.36] |
| 1 to 10 | c1ccc(C2CCc3nc4ccc(-c5ccc6c(c5)OCO6)cc4n32)cc1 (stereo not drawn) [A.37] |
| 1 to 10 | COc1cncc(-c2ccc3nc4n(c3c2)C(c2ccccc2)CC4)c1 (stereo not drawn) [A.38] |
| 1 to 10 | COCCNC(=O)c1ccc(-c2ccc3nc4n(c3c2)C(c2ccccc2)CC4)cc1 (stereo not drawn) [A.39] |
| 1 to 10 | CNC(=O)c1ccc(-c2ccc3nc4n(c3c2)C(c2ccccc2)CC4)cc1 (stereo not drawn) [A.40] |
| 1 to 10 | N#CCc1cccc(-c2ccc3nc4n(c3c2)C(c2ccccc2)CC4)c1 (stereo not drawn) [A.41] |
| 1 to 10 | CS(=O)(=O)NCc1cccc(-c2ccc3nc4n(c3c2)C(c2ccccc2)CC4)c1 (stereo not drawn) [A.42] |
| 1 to 10 | CNC(=O)c1cccc(-c2ccc3nc4n(c3c2)C(c2ccccc2)CC4)c1 (stereo not drawn) [A.43] |
| 10 to 100 | CCN(C)C(=O)c1cccc(-c2ccc3nc4n(c3c2)C(c2ccccc2)CC4)c1 (stereo not drawn) [A.44] |
| 10 to 100 | CN(C)CCNC(=O)c1cccc(-c2ccc3nc4n(c3c2)C(c2ccccc2)CC4)c1 (stereo not drawn) [A.45] |
| 10 to 100 | Cn1cc(-c2ccc3nc4n(c3c2)C(c2ccccc2)CC4)ccc1=O (stereo not drawn) [A.46] |
| 10 to 100 | Cn1ccc(-c2ccc3nc4n(c3c2)C(c2ccccc2)CC4)c1 (stereo not drawn) [A.47] |

From patent US20180179198A1, “TRICYCLIC MODULATORS OF TNF SIGNALING” (AbbVie Inc., priority 2015, published 2018)
